Consider four compounds from patent US20260273078A1, “AN INJECTABLE DELIVERY SYSTEM FOR LONG-ACTING ADMINISTRATION OF DRUGS” (priority 2023, published 2026).

Entries after “also recorded” stand apart in the source; their conditions may differ.

For one series, the target named is proteinase K (Parengyodontium album, UniProt P06873). Nature of the series: Biostability after incubation with proteinase K over 28 days. Type of series: in vitro ADME. As to conditions: up to 28 days. An excerpt: L-peptide NapFFKY(p)G-OH (small circle) and D-peptide NapffkY(p)G-OH (upright triangle) are peptide-only controls that also form hydrogels in response to phosphatase enzymes.
Chain of proteinase K (P06873 106-384): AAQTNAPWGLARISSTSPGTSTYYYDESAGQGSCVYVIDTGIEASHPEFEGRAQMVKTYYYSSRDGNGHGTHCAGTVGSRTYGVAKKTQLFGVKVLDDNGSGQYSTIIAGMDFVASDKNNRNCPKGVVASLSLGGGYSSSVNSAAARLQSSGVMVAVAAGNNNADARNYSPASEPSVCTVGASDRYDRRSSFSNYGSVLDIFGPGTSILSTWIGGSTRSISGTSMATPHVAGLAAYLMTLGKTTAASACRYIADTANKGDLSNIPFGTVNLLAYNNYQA

Another series concerns HIV. As to conditions: cited from earlier work.

Consider “(NPhe)4GGGGKY(p)-OH [PP4G L-peptide variant]”, for which, at proteinase K, the “Biostability in the presence of proteinase-K (in words)” value (“Biostability in the presence” for short) is on record as “breaks down between days; also recorded: breaks down within days”.
As to `NCCCC[C@H](NC(=O)[C@H](Cc1ccccc1)NC(=O)[C@H](Cc1ccccc1)NC(=O)Cc1ccc2ccccc2c1)C(=O)N[C@@H](Cc1ccc(OP(=O)(O)O)cc1)C(=O)NCC(=O)O` [L-peptide, NapFFKY(p)G-OH, reference compound], at proteinase K, the “Biostability in the presence” value is “degrades rapidly, within hours”.
Turning to `Cc1cn([C@H]2C[C@H](N=[N+]=[N-])[C@@H](CO)O2)c(=O)[nH]c1=O` [zidovudine], the IC50 range with HIV was 0.03 to 0.13 µg/mL.
In the case of “NapffkY(p)G-OH [D-peptides, reference compound]”, on proteinase K, the “Biostability in the presence” value is recorded as “significant stability after 28 days”.
